The subject of one series is PDX GBM lines. Put plainly: Cell viability of PDX GBM lines post therapy, trypan blue exclusion. The series is classed as cell-based. The settings on record: CellCept combined with TMZ. Here is the method:
(§1) FIG. 10A-10C. […] A) Pictorial representation of cell viability post therapy. B) Cell viability measured by trypan blue exclusion method. C) Mice with orthotopic GBM43 treated with vehicle DMSO, TMZ 2.5 mg/kg for 5 days, MMF (20 mg/kg for 4 days and in combination and monitored by endpoint survival.

For series [1] the following is noted: in vivo; cited from earlier work.
In the next series the test system is EAE and stroke. The conditions noted are these: cited from earlier work.
The subject of another series is orthotopic GBM43. Put plainly: Orthotopic PDX GBM mouse model, endpoint survival, IMPDH inhibitor with TMZ. The series is classed as in vivo, Mice. The settings on record: for survival benefits in vivo and vitro models: mouse. Here is the method:
as §1
(§2) Glioblastoma, a universally lethal primary brain tumor, harnesses cellular plasticity to drive therapeutic adaptation. Critical factors in developing this plasticity are histone modifiers such as Polycomb Repressor Complex 2 protein EZH2. […] Concurrently, we observed an increase in H3K27ac at the transcription start site of ARL13B as well as a lack of H3K27 tri-methylation, EZH2's canonical histone mark. Based on this we hypothesize that EZH2 could be non-canonically regulating ARL13B to allow for cellular plasticity and ultimately drive therapeutic adaptation. […] Searching for a mechanism behind this survival benefit, we preformed mass spectrometry on an ARL13B pulldown in a patient derived xenograft line during TMZ therapy and identified inosine monophosphate dehydrogenase 2 (IMPDH2), the rate-limiting enzyme in de-novo guanine nucleotide biosynthesis, as a significant binding partner of ARL13B during TMZ chemotherapy (p-value<0.0001). Probing this novel interaction further we examined the de-novo and salvage purine biosynthesis pathways using radiolabeled carbon tracing experiments. […] This synthesis shift forces cells to uptake and incorporate purines that have been alkylated by TMZ therapy which increases DNA double strand breaks and ultimately impairs therapeutic adaptation.

The conditions of series [2]: patients; cited from earlier work.
The test system of series [3] is ARL13B knockdown PDX GBM (GBM5, GBM6). Put plainly: Intracranial ARL13B knockdown PDX xenografts treated with TMZ, endpoint survival. It is filed as in vivo, nu/nu mice. The settings on record: TMZ 2.5 mg/kg for 5 days. The procedure:
(§3) FIG. 5A-5D. Removal of ARL13B sensitizes GBM to TMZ therapy. […] B) Quantitative measure of H2X foci of different conditions counted in 100 cells. C) and D) shRNA mediated knockdown of ARL13B PDX lines were implanted in the nu/nu mice intracranially. After tumor establishment (7 days post implantation measured by BLI) animals were treated with suboptimal dose of TMZ (2.5 mg/kg) for 5 consecutive days. Animals were monitored for endpoint survival. C) GBMS PDX which is a mesenchymal subtype and D) GBM6, a classical subtype.
2.6. ARL13B KD enhances the therapeutic efficacy of TMZ both in vitro and in vivo: The monofunctional DNA-alkylating agent TMZ is a commonly used chemotherapeutic drug and the gold standard of treatment for GBM. Although the activity of the DNA repair enzyme O6-methylguanine-DNA methyltransferase (MGMT) has been identified as the critical modulator to determine the GBM sensitivity to TMZ, all GBMs, even those with MGMT inactivation, eventually stop responding to TMZ. This begs question whether an alternative mechanism of resistance may be involved in GBM. The anti-GBM activity of TMZ is predominately provoked by O6-methylguanine-DNA adducts. […] After tumor engraftment animals were treated with vehicle control or TMZ (2.5 mg/kg) for 5 consecutive days and animals were monitored by endpoint survival. […]

The subject of a further series is de novo pathway. Put plainly: [14C]-glycine isotope tracing, de novo purine biosynthesis. It is filed as cell-based. The conditions noted are these: for de novo pathway activity during TMZ therapy: cells with endogenous ARL13B. The procedure: (§4) FIG. 4A-4E. IMPDH2-ARL13B interaction during TMZ therapy influences purine biosynthesis. A) Schematic diagram of purine biosynthesis. Isotope tracing analysis performed with ^14C glycine for de novo and ^3H hypoxanthine for salvage pathway. […] D)^14C glycine incorporation via de novo synthesis of the DNA and RNA with or without TMZ therapy in the presence and absence of ARL13B. U251 GBM cells were pulsed for 6 h with ^14C glycine, DNA and RNA were isolated, and ^14C incorporation was measured by […]. E) ^3H hypoxanthine incorporation via salvage pathway.
2.5. The ARL13B-IMPDH2 interaction during TMZ therapy alters the path to purine biosynthesis: IMPDH controls the gateway to purine nucleotides, by analyzing the rate-limiting reaction of de novo GTP biosynthesis at the inosine monophosphate (IMP) metabolic branch point^36 (FIG. 4A). This critical reaction appears to be present in every organism. Alternatively, purine bases, released by hydrolytic degradation of nucleic acids and nucleotides, can be salvaged and recycled. This is an energy-saving pathway for purine biosynthesis, and its inefficiency can result in many pathological conditions including Lesch-Nyhan syndrome^37. In cancer, rapid cell division results in a high demand for purine nucleotides that generally cannot be sustained by salvage pathways, which may explain the importance of IMPDH in cancer^14, 38. This information, combined with our finding of a direct interaction between ARL13B and IMPDH2 during TMZ therapy, allows us to postulate that such an interaction may be playing a role in regulation of purine biosynthesis pathway. To investigate further, we first performed [^14C]-glycine (de novo) and [^3H]-hypoxanthine (salvage) pulse-chase study during therapy, which allowed us to measure the activity of specific purine biosynthesis pathways^39 (FIG. 4A). […] Moreover, removal or ARL13B enhanced the salvage activity about 5-fold (FIG. 4E, p<0.0005). Based on this, we conclude that ARL13B may act as a negative regulator for the salvage pathway and is play a role in therapy-induced switch of the purine biosynthesis.

Another series deals with Glioblastoma (GBM). The conditions noted are these: combined with radiotherapy after surgery; cited from earlier work.
For another series, the system named is salvage pathway. Put plainly: [3H]-hypoxanthine isotope tracing, salvage purine biosynthesis. The settings on record: cells with endogenous ARL13B; listed as temozolomide. The series is classed as cell-based. Here is the method: as §4
2.5. The ARL13B-IMPDH2 interaction during TMZ therapy alters the path to purine biosynthesis: IMPDH controls the gateway to purine nucleotides, by analyzing the rate-limiting reaction of de novo GTP biosynthesis at the inosine monophosphate (IMP) metabolic branch point^36 (FIG. 4A). This critical reaction appears to be present in every organism. Alternatively, purine bases, released by hydrolytic degradation of nucleic acids and nucleotides, can be salvaged and recycled. This is an energy-saving pathway for purine biosynthesis, and its inefficiency can result in many pathological conditions including Lesch-Nyhan syndrome^37. In cancer, rapid cell division results in a high demand for purine nucleotides that generally cannot be sustained by salvage pathways, which may explain the importance of IMPDH in cancer^14, 38. […]

The test system of series [4] is ARL13B knocked out GBM lines. Put plainly: DNA damage by H2X foci in ARL13B knockout/knockdown GBM cells treated with TMZ. The series is classed as cell-based. The conditions noted are these: ARL13B knockout/knockdown cells vs control cells, both exposed to TMZ. Here is the method:
as §3
Creation of this alkylated purine causes a base pair mismatch in DNA (G-T) which results in DNA damage and cell cycle arrest and apoptosis (PMID: 15322239). Because of the nature of temozolomide chemotherapy-induced DNA damage, we chose to examine whether or not salvage pathway synthesis carried an implicit sensitivity to this alkylating chemotherapy. […] However, it did decrease the utilization of the salvage pathway by roughly 50%. Next, we subjected our ARL13B knockout cells to a standard dose of Temozolomide chemotherapy and checked whether they had more DNA double-stranded breaks by utilizing gamma h2ax foci counting. […]
2.6. […] After tumor engraftment animals were treated with vehicle control or TMZ (2.5 mg/kg) for 5 consecutive days and animals were monitored by endpoint survival. […]

In the next series the test system is IMPDH2. Put plainly: IMPDH2 enzymatic activity, formazin reduction assay. The series is classed as biochemical. The settings on record: over 8 days of TMZ exposure (p<0.001).
Excerpt: as §2

The test system of a further series is IMPDH. The conditions noted are these: cited from earlier work.
The next series relates to GBM flank model. Put plainly: GBM flank model, tumor growth, EZH2 inhibitor plus TMZ. It is filed as in vivo. An excerpt: FIG. 1A-1D. ARL13B is a downstream target for EZH2 non-canonical function. A) EZH2 expression is elevated during (day 3-D3) and post (D18) TMZ therapy. Therapy resistant glioma stem cell (CD133+) express high EZH2 post therapy (left). […] C) To examine the role of non-canonical function in TMZ resistance GBM43 (proneural) and GBM6 (Classical) PDX GBM treated with TMZ or TMZ+EZH2 inhibitor and subject to RNAseq analysis. […] We identified ARL13B as the top hit from this screen. D) shRNA mediated knockdown of EZH2 leads to downregulation of ARL13B.
2.1. […] One such epigenetic regulator is the Polycomb Repressor Complex 2 (PRC2), a critical family protein that is essential for maintaining the self-renewal ability of adult and embryonic stem cells^22, 23. This complex is involved in transcription silencing via chromatin compaction by catalyzing the methylation of the histone H3 at lysine 27. The catalytic subunit of the PRC2 complex, Enhancer Of Zeste 2 (EZH2), has been linked to aggressive progression of multiple cancers, including GBMs^24 25. The function of EZH2 is closely related to the cancer stem cell (CSC) phenotype, mesenchymal transition and radioresistance, which is associated with post-surgery relapse of GBM^24-26. However, its role in promoting chemoresistance properties in GBM is yet to be investigated. […]

A short description of series [5]: Blood-brain barrier crossing of the EZH2 inhibitor, orthotopic PDX model. It is filed as in vivo. From the text: 2.1. […] One such epigenetic regulator is the Polycomb Repressor Complex 2 (PRC2), a critical family protein that is essential for maintaining the self-renewal ability of adult and embryonic stem cells^22, 23. This complex is involved in transcription silencing via chromatin compaction by catalyzing the methylation of the histone H3 at lysine 27. The catalytic subunit of the PRC2 complex, Enhancer Of Zeste 2 (EZH2), has been linked to aggressive progression of multiple cancers, including GBMs^24 25. The function of EZH2 is closely related to the cancer stem cell (CSC) phenotype, mesenchymal transition and radioresistance, which is associated with post-surgery relapse of GBM^24-26. However, its role in promoting chemoresistance properties in GBM is yet to be investigated. To this end, we have examined the role of the EZH2-PRC2 complex in promoting TMZ resistance.

The structures appear in SMILES notation. Entries after “also recorded” stand apart in the source; their conditions may differ.

With `COc1c(C)c2c(c(O)c1C/C=C(\C)CCC(=O)OCCN1CCOCC1)C(=O)OC2` [CellCept, mycophenolic mofetil], the “sensitization to TMZ therapy in vitro” value in the series with PDX GBM lines is recorded as “sensitizes PDX GBM lines to TMZ therapy; also recorded: significantly improved the therapeutic efficacy of TMZ-based anti-GBM chemotherapy”. The “crossing of the blood-brain barrier (BBB)” value in series [1] was “ability to cross the blood-brain barrier”. Also, the “neuroprotection against inflammatory conditions” value in the series on EAE and stroke is “promoted neuroprotection”. Besides, the “therapeutic efficacy of TMZ-based chemotherapy, animal model” value with orthotopic GBM43 (CellCept combined with TMZ, PDX model (FIG. 10)) is “corporation between CellCept and TMZ; also recorded: significantly improved the therapeutic efficacy of TMZ-based anti-GBM chemotherapy”. Moreover, the “survival benefits in vivo and vitro models” value in the series with orthotopic GBM43 is recorded as “robust survival benefits”. Further, the median survival result in the series with orthotopic GBM43 (orthotopic PDX mouse model, only when in combination with TMZ (p<0.01)) is on record as “significantly extended median survival”.
For the compound `Cn1nnc2c(C(N)=O)ncn2c1=O` [TMZ, 3,4-dihydro-3methyl-4-oxoimidazo[5,1-d]-1,2,3,5-tetrazine-8-carboxamide], the “peak cerebral spinal fluid and serum concentrations” value in series [2] is 50 µM. Further, in series [3] (classical subtype GBM6, ARL13B KD), the “improvement in overall survival compared to control” value is 39%. Besides, in [3] (mesenchymal subtype, ARL13B KO GBM), the “animals that did not develop any tumor” value is on record as 80%. The “decrease of de novo pathway usage in a TMZ specific manner” value in the series with de novo pathway (ARL13B knockdown / removal) was “about 50%”. Besides, the “de novo pathway activity in a TMZ-specific manner” value with de novo pathway (ARL13B knocked-out cells) was “inhibited in a TMZ-specific manner; also recorded: reduced significantly in a TMZ-specific manner”. The “de novo pathway activity during TMZ therapy” value in the series with de novo pathway is given as “remained unchanged; also recorded: did not alter the de novo synthesis pathway”; in the series on de novo pathway (listed as temozolomide), “did not statistically change”. Also, in the series on Glioblastoma (GBM), the “improvement of overall survival time” value is 4-6 months. For the same compound, in the series with salvage pathway, the “decrease of salvage pathway activity during TMZ therapy” value was “roughly 50%”. The “DNA damage / double-strand breaks (H2X foci)” value in series [4] is recorded as “robust increase in DNA double-strand breaks; also recorded: significantly elevated DNA damage”; in [4] (listed as Temozolomide), “significantly more foci”. Also, the IMPDH2 enzymatic activity entry in the series on IMPDH2 is recorded as “decrease in activity”.
Take `NC(=O)c1ncn([C@@H]2O[C@H](CO)[C@@H](O)[C@H]2O)c1O` [Mizoribine, mizoribine]: the “survival benefits in vivo and vitro models” value with orthotopic GBM43 is reported as “robust survival benefits”.
Consider `CC[C@H](CC#N)OC(=O)N[C@@H](C)c1cccc(NC(=O)Nc2ccc(-c3cnco3)c(OC)c2)c1` [AVN944], for which the “IMPDH activity as compared to CellCept” value in the series on IMPDH was “enhanced IMPDH activity as compared to CellCept”.
As for `CCCc1cc(C)[nH]c(=O)c1CNC(=O)c1cc(-c2ccc(N3CCN(C(C)C)CC3)nc2)cc2c1cnn2C(C)C` [EZH2 inhibitor], in the series with GBM flank model, the “tumor growth / therapeutic efficacy of TMZ in flank model” value is “can block the tumor growth; also recorded: significantly enhanced the therapeutic efficacy of TMZ”. The “crossing of the blood-brain barrier” value in [5] is “failed to cross the blood-brain barrier”.

Values taken from US11786542B2, “Methods for enhancing cytotoxic cancer therapy through modulation of purine biosynthesis pathways” (NORTHWESTERN UNIVERSITY, priority 2019, dated 2023).
